From publication PMC8956739, “A synthetic lipopeptide targeting top-priority multidrug-resistant Gram-negative pathogens” (Nature Communications, 2022)
In brackets after ≈: the same amount, converted by molar mass. Where two headings read alike, the source gives them in different places. Residues, ends and D or L forms follow the SMILES beside them.

Key:
Swiss mice, kidney = test: Nephrotoxicity in mice (kidney histopathology); type: in vivo, mouse; conditions: for Kidney histopathology (SQS Score): 72 mg/kg/d subcutaneously in six divided doses every 2 h, n = 3
Outline: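 Female Swiss mice (7-week-old, 22–28 g) received lipopeptides in saline either s.c. at 12 mg/kg ×6 every 2 h (total 72 mg/kg, n = 3) or i.p. at 20 or 25 mg/kg ×6 every 2 h (total 120 mg/kg, n = 6; 150 mg/kg, n = 3). Right kidney collected 20 h after last dose, fixed in 10% buffered formalin (pH 7.4), histology scored blinded.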

HK-2 cells = test: Transcriptomic analysis (RNA-Seq) of kidney cells; type: cell-based, human; conditions: for logFC, differential gene expression for all genes / log2FC / Fold Change: HK-2 RNA-Seq; for log2FC: Fig. 5f; for num.of.degs: number of differentially expressed genes per peptide, Fig. 6a; for Fold Change: Fig. 5e
Method: Human Kidney-2 (HK-2) cells (CRL-2190™, American Type Culture Collection) were treated with 100 μM colistin, F287, F319, and F365 for 24 h. Previous transcriptomic data of HK-2 cells following 24 h treatment with polymyxin B[26] were also employed for comparative bioinformatic analysis. RNA extraction was conducted as described above. Raw reads were aligned to genome GRCh38.94 (Ensembl genome database, http://ftp.ensembl.org/pub/release-94/fasta/homo_sapiens/dna/) using […] and summarized by featureCounts. Differentially expressed genes were determined using limma 3.46.0, with a combination of fold change ≥ 1.5 and FDR (by Benjamini–Hochberg algorithm) adjusted P-value ≤ 0.05 (n = 3). Key regulatory genes of HK-2 were analyzed in the context of signaling network in the Signor 2.0 database. Enrichment analysis of gene differential expression in HK-2 cells was conducted using enrichR 2.1. UpSetR 1.4.0, ComplexHeatmap 2.6.2, circlize 0.4.13 and iGraph 1.2.11 were used for data visualization. Raw data were deposited in the Short Reads Archive database under accession numbers SRR15239061-SRR15239078.

[1] = system: MDR clinical isolates of Enterobacterales (n = 177, 152 carbapenem-resistant); test: Extended MIC screening, MDR clinical isolates; type: cell-based
Method: (§1) MICs were determined in cation-adjusted Mueller–Hinton broth (CaMHB) by the broth micro-dilution method against ATCC strains and clinical isolates. MICs in the presence of Survanta® were determined as described above against P. aeruginosa ATCC 27853. In the 100 μL of fresh CaMHB containing polymyxins, 10% Survanta® (v/v, 2.5 mg/mL phospholipids) was added. MICs in the presence and absence of Survanta® were compared to determine the effect of binding to lung surfactant on the antibacterial activity of polymyxins.

[2] = system: P. aeruginosa FADDI-PA070; type: cell-based, Pseudomonas aeruginosa
Outline: (§2)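 Compounds were serially diluted in CaMHB, bacteria were added, and the lowest inhibitory concentration was recorded after broth microdilution testing.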

[3] = system: P. aeruginosa FADDI-PA090; type: cell-based, Pseudomonas aeruginosa
Outline: as §2

A. baumannii ATCC 19606 = type: cell-based, Acinetobacter baumannii
Outline: as §2

A. baumannii AB5075 = type: cell-based, Acinetobacter baumannii
Outline: as §2

A. baumannii FADDI-AB030 = type: cell-based, Acinetobacter baumannii
Outline: as §2

[4] = system: MDR clinical isolates of A. baumannii (n = 210, 200 carbapenem-resistant); type: cell-based, Acinetobacter baumannii
Outline: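 MICs came from broth microdilution in cation-adjusted Mueller–Hinton broth against clinical isolates. For surfactant binding, P. aeruginosa ATCC 27853 was additionally tested with 10% Survanta® (v/v, 2.5 mg/mL phospholipids) added to the polymyxin-containing broth.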

A. baumannii FADDI-AB034 = type: cell-based, Acinetobacter baumannii
Outline: as §2

[5] = system: K. pneumoniae FADDI-KP132; test: MIC, polymyxin-resistant isolate; type: cell-based, Klebsiella pneumoniae; conditions: mcr-1 positive
Method: as §1

[6] = 150 mg/kg/d IP in 6 divided doses every 2 h
[7] = MDR clinical isolates of (n = 210, 200 carbapenem-resistant)
[8] = mouse, in vivo, ip, 60 mg/kg/day

CC[C@@H]1NC(=O)[C@@H](CC(C)C)NC(=O)[C@H](CCN)NC(=O)[C@@H](NC(=O)[C@H](CN)NC(=O)[C@@H](NC(=O)[C@H](CCN)NC(=O)c2ccc(Cl)cc2Cl)[C@@H](C)O)CCNC(=O)[C@H]([C@@H](C)O)NC(=O)[C@H](CCN)NC(=O)[C@H](CCN)NC1=O [Lipopeptide F365] (HELM PEPTIDE1{[O=C(c1ccc(Cl)cc1Cl)[*:2]].[Dab].T.[NC[C@H](N[*:1])C(=O)[*:2]].[Dab].[Dab].[dL].[Abu].[Dab].[Dab].T}$PEPTIDE1,PEPTIDE1,5:R3-11:R2$$$V2.0)
Kidney histopathology (SQS Score) (Swiss mice, kidney): 0 (SQS 0 = no significant change (overall score, <1))
SQS score (Swiss mice, kidney; [6]): 0 (SQS 0 = no significant change (overall score, <1))
mice with the SQS score (Swiss mice, kidney; [6]): 3/3
Kidney histopathology, mice with the SQS score (Swiss mice, kidney; mouse, in vivo): 3/3
Kidney histological damage, mice with the given grade (Swiss mice, kidney; mouse, in vivo, ip, 120 mg/kg/day): 6/6
Kidney damage (Swiss mice, kidney; mouse, in vivo, ip, 150 mg/kg): no significant damage to the kidneys
logFC, differential gene expression for all genes (HK-2 cells; Geneid ENSG00000223972): -0.04793
logFC, differential gene expression for all genes (HK-2 cells; Geneid ENSG00000227232): -0.06475
logFC, differential gene expression for all genes (HK-2 cells; Geneid ENSG00000233750): -1.555
logFC, differential gene expression for all genes (HK-2 cells; Geneid ENSG00000278267): 0.04711
log2FC (HK-2 cells; gene ENSG00000017483 SLC38A5): -0.03439
log2FC (HK-2 cells; gene ENSG00000023445 BIRC3): -0.1649
log2FC (HK-2 cells; gene ENSG00000056558 TRAF1): 0.4036
log2FC (HK-2 cells; gene ENSG00000066468 FGFR2): -0.6638
num.of.degs (HK-2 cells): 70
Number of isolates ([1]; isolates with MIC 0.05 µg/mL): 0
Number of isolates ([1]; isolates with MIC 0.125 µg/mL): 9
Number of isolates ([1]; isolates with MIC 0.25 µg/mL): 68
Number of isolates ([1]; isolates with MIC 0.5 µg/mL): 72
Number of isolates ([1]; isolates with MIC 1 µg/mL): 5
Number of isolates ([1]; isolates with MIC 2 µg/mL): 1
Number of isolates ([1]; isolates with MIC 4 µg/mL): 2
Number of isolates ([1]; isolates with MIC 8 µg/mL): 0
Number of isolates ([1]; isolates with MIC 16 µg/mL): 5
Number of isolates ([1]; isolates with MIC 32 µg/mL): 2
Number of isolates ([1]; isolates with MIC 64 µg/mL): 4
Number of isolates ([1]; isolates with MIC >64 µg/mL): 6
MIC P. aeruginosa FADDI-PA070 ([2]; FADDI-PA070): > 32 µg/mL
MIC P. aeruginosa FADDI-PA090 ([3]; FADDI-PA090): 8 µg/mL (≈ 6.9 µM)
MIC A. baumannii ATCC 19606 (A. baumannii ATCC 19606; ATCC 19606): 0.25 µg/mL (≈ 0.215 µM)
MIC A. baumannii AB5075 (A. baumannii AB5075; AB5075): 0.5 µg/mL (≈ 0.431 µM)
MIC A. baumannii FADDI-AB030 (A. baumannii FADDI-AB030; FADDI-AB030): 0.25 µg/mL (≈ 0.215 µM)
MIC50 [4, 7]: 0.25 µg/mL (≈ 0.215 µM)
MIC90 [4, 7]: 1 µg/mL (≈ 0.862 µM)
potency relative to polymyxin B ([4]; MIC50/MIC90, A. baumannii panel): ≤ 4 fold
Number of isolates ([4]; isolates with MIC 0.05 µg/mL): 1
Number of isolates ([4]; isolates with MIC 0.125 µg/mL): 7
Number of isolates ([4]; isolates with MIC 0.25 µg/mL): 99
Number of isolates ([4]; isolates with MIC 0.5 µg/mL): 81
Number of isolates ([4]; isolates with MIC 1 µg/mL): 8
Number of isolates ([4]; isolates with MIC 2 µg/mL): 9
Number of isolates ([4]; isolates with MIC 4 µg/mL): 1
Number of isolates ([4]; isolates with MIC 8 µg/mL): 0
Number of isolates ([4]; isolates with MIC 16 µg/mL): 1
Number of isolates ([4]; isolates with MIC 32 µg/mL): 2
Number of isolates ([4]; isolates with MIC 64 µg/mL): 1
Number of isolates ([4]; isolates with MIC >64 µg/mL): 0
MIC A. baumannii FADDI-AB034 (A. baumannii FADDI-AB034; FADDI-AB034): 0.25 µg/mL (≈ 0.215 µM)
MIC K. pneumoniae FADDI-KP132 [5]: 8 µg/mL (≈ 6.9 µM)

Polymyxin B [reference compound]
Kidney histopathology (SQS Score) (Swiss mice, kidney): +5 (SQS + 5 = severe damage (overall score, >60))
Kidney histopathology, mice with the SQS score (Swiss mice, kidney; mouse, in vivo): 3/3
Kidney histological damage (Swiss mice, kidney; [8]): Moderate to severe
Kidney histological damage, mice with the given grade (Swiss mice, kidney; [8]): 6/6
logFC, differential gene expression for all genes (HK-2 cells; Geneid ENSG00000223972): 0.4637
logFC, differential gene expression for all genes (HK-2 cells; Geneid ENSG00000227232): -0.07236
logFC, differential gene expression for all genes (HK-2 cells; Geneid ENSG00000233750): -0.3869
logFC, differential gene expression for all genes (HK-2 cells; Geneid ENSG00000278267): -0.4937
log2FC (HK-2 cells; gene ENSG00000017483 SLC38A5): 0.7953
log2FC (HK-2 cells; gene ENSG00000023445 BIRC3): -0.454
log2FC (HK-2 cells; gene ENSG00000056558 TRAF1): 0.6897
log2FC (HK-2 cells; gene ENSG00000066468 FGFR2): -1.758
Fold Change (HK-2 cells; locus chr1 629640-630683 (ENSG00000225630 by coordinates)): 1.799
Fold Change (HK-2 cells; locus chr1 631074-632616 (ENSG00000237973 by coordinates)): 1.271
Fold Change (HK-2 cells; locus chr1 632757-633438 (ENSG00000229344 by coordinates)): 1.2
num.of.degs (HK-2 cells): 1576
Number of isolates ([1]; isolates with MIC 0.05 µg/mL): 0
Number of isolates ([1]; isolates with MIC 0.125 µg/mL): 0
Number of isolates ([1]; isolates with MIC 0.25 µg/mL): 0
Number of isolates ([1]; isolates with MIC 0.5 µg/mL): 0
Number of isolates ([1]; isolates with MIC 1 µg/mL): 77
Number of isolates ([1]; isolates with MIC 2 µg/mL): 76
Number of isolates ([1]; isolates with MIC 4 µg/mL): 2
Number of isolates ([1]; isolates with MIC 8 µg/mL): 2
Number of isolates ([1]; isolates with MIC 16 µg/mL): 6
Number of isolates ([1]; isolates with MIC 32 µg/mL): 3
Number of isolates ([1]; isolates with MIC 64 µg/mL): 6
Number of isolates ([1]; isolates with MIC >64 µg/mL): 5
MIC P. aeruginosa FADDI-PA070 ([2]; polymyxin-resistant): > 32 µg/mL
MIC P. aeruginosa FADDI-PA090 ([3]; polymyxin-resistant): 4 µg/mL
MIC A. baumannii ATCC 19606 (A. baumannii ATCC 19606): 1 µg/mL
MIC A. baumannii AB5075 (A. baumannii AB5075): 0.5 µg/mL
MIC A. baumannii FADDI-AB030 (A. baumannii FADDI-AB030; carbapenem-resistant isolate): 0.25 µg/mL
MIC50 ([4]; A. baumannii n = 210): 1 µg/mL
MIC90 ([4]; A. baumannii n = 210): 4 µg/mL
Number of isolates ([4]; isolates with MIC 0.05 µg/mL): 0
Number of isolates ([4]; isolates with MIC 0.125 µg/mL): 0
Number of isolates ([4]; isolates with MIC 0.25 µg/mL): 0
Number of isolates ([4]; isolates with MIC 0.5 µg/mL): 24
Number of isolates ([4]; isolates with MIC 1 µg/mL): 120
Number of isolates ([4]; isolates with MIC 2 µg/mL): 47
Number of isolates ([4]; isolates with MIC 4 µg/mL): 11
Number of isolates ([4]; isolates with MIC 8 µg/mL): 5
Number of isolates ([4]; isolates with MIC 16 µg/mL): 2
Number of isolates ([4]; isolates with MIC 32 µg/mL): 0
Number of isolates ([4]; isolates with MIC 64 µg/mL): 0
Number of isolates ([4]; isolates with MIC >64 µg/mL): 0
MIC A. baumannii FADDI-AB034 (A. baumannii FADDI-AB034; carbapenem-resistant isolate): 0.5 µg/mL
MIC K. pneumoniae FADDI-KP132 [5]: 8 µg/mL
